Measurements from patent publication US9056105B2, “Method for treatment of bone diseases and fractures” (INDIANA UNIVERSITY RESEARCH AND TECHNOLOGY CORPORATION, priority 2008, dated 2015).

Key:
[1] = test system: ATF4, ATF3, CHOP, Runx2, Osterix, Rank 1, Osteocalcin mRNA; test: mRNA expression levels by real-time PCR in MC3T3 cells; assay type: cell-based, mouse
Experimental: Responses to Administration of Thapsigargin—Upregulation of transcription factors linked to bone formation as well as PERK: The effects of 10 nM thapsigargin on mRNA expression levels of ISR-linked genes (ATF4, ATF3, and CHOP) as well as genes involved in bone remodeling (Runx2, Osterix, and Rank 1), were examined (FIG. 7). […] Out of 4 transcription factors (ATF4, ATF3, Runx2, and Osterix), the level of ATF4 mRNA was elevated 2-4 fold throughout the treatments. […] The mRNA level of type 1 collagen was elevated 5 h and 10 h for T1h (1 h exposure at 10 nM).
(§1) Responses to Administration of Salubrinal—In vitro responses to salubrinal: In order to evaluate the effects of salubrinal, MC3T3 E1 osteoblast-like cells and MLO-A5 osteocyte cells (Barragan-Adjemian, C., et al., “Mechanism by which MLO-A5 late osteoblasts/early osteocytes mineralize in culture: similarities with mineralization of lamellar bone,” Calcif. Tissue Int. 79:340-353 (2006)) were incubated with salubrinal at 100 nM-50 μM for 1-24 h. The mRNA levels of the selected genes, TF4, ATF3, Osteocalcin (OCN), and CHOP, were determined by real-time PCR. […] In MC3T3 cells, for instance, the Osteocalcin mRNA level, which is regulated by ATF4 and Runx2 (Xiao et al. 2005), was elevated 11.8±0.2 fold at 10 μM salubrinal in 24 h.

MLO-A5 osteocyte cells = test: mRNA levels by real-time PCR in MLO-A5 osteocyte cells; assay type: cell-based; details: 100 nM-50 μM, 1-24 h
Experimental: as §1

femora of C57BL/6 mice = test: Intramedullary injection into mouse femur, BMD and BMC; assay type: in vivo
Experimental: Responses to Administration of Salubrinal—In Vivo Responses to salubrinal: In order to evaluate the effects of salubrinal in vivo, salubrinal was injected into an intramedullary cavity of the left femora of C57BL/6 mice and alterations in bone mineral density (BMD) and bone mineral content (BMC) were determined. There were 9 salubrinal treated mice as well as 9 placebo mice (injection of PBS). All mice received 4 injections of either salubrinal or PBS in the left femur, while the right femur was used as contralateral control. In four consecutive injections with a 0.5-inch #26-gauge needle and a Hamilton micro-syringe, the laterial side was used on the 1st and 3rd injections and the medial side on the 2nd and 4th injections. An injection volume was 20 μl for salubrinal or PBS, and the salubrinal concentration was 50 μM. […] At the time of harvest (2 wks after the 1st injection), an increase in body weight in Salubrinal group (0.80±0.13 g) was higher than that in Placebo group (0.28±0.15 g; p<0.05). Harvested bone samples were analyzed with PIXImus (version 1.4, GE Medical System Lunar) for determination of BMD and BMC.

mouse tibia = test: Mouse tibia bone formation, ankle loading plus local salubrinal; assay type: in vivo; details: 0.025 mg/kg (100 μM) salubrinal plus ankle loading, 5 days
Experimental: Mouse tibia-bone formation: Twenty C57/BL/6 Female Mice (˜8 weeks, body weight˜18 g) were employed to examine the combined effects of ankle loading and local administration of salubrinal to the tibia (Zhang P, et al., Salubrinal stimulates anabolic responses in mouse femora, 55th Ann Meeting ORS (2009)). Local administration was targeted into a bone marrow cavity from the proximal tibia. A total volume of 20 μl PBS was injected to the left hindlimb with or without 0.025 mg/kg (100 μM) salubrinal (Calbiochem) using a micro-syringe with a 0.5-inch #26-gauge needle (Worsham D N, et al., In vivo gene transfer into adult stem cells in unconditioned mice by in situ delivery of a lentiviral vector, Mol. Ther. 14:514-24 (2006); Zhu Y, et al., eIF-2α protects brainstem motoneurons in a murine model of sleep apnea, J. Neurosci. 28:2168-78 (2008)). In examination of the combined effects of mechanical loading and salubrinal administration, ankle loading was given for 5 consecutive days after administration of salubrinal on each day. The mouse was placed in an anesthetic induction chamber to cause sedation and then mask-anesthetized using 1.5% isoflurane. With a custom-made piezoelectric mechanical loader, loads were applied to the left ankle for 5 min/day in the lateral-medial direction. The loading frequency was 5 Hz, and the peak-to-peak force was 0.5 N (FIG. 15). […]

rat tibia = test: Rat tibia healing of surgical wounds, micro CT; assay type: in vivo; details: for reduction in wound size vs control: medial cortex
From the text: Rat tibia—healing of surgical wounds. Twenty female SD rats (˜8 weeks, body weight˜180 g) received a surgical hole with ˜2.0 mm in diameter in the left and right tibiae (Zhang P., et al., Knee loading accelerates bone healing in mice, J. Bone Miner. Res. 22:1979-1987 (2007)). The hole was located on the medial surface ˜15 mm distant apart from the proximal end of the tibia (Chiba S., et al., Molecular analysis of defect healing in rat diaphyseal bone, J. Vet. Med. Sci. 63:603-606 (2001)). During the first 5 days, 100 μl of salubrinal solution at dosage of 0.025 mg/kg was injected into the left limb and a PBS solution (vehicle control) in the right limb (Wang J W, et al., Locally applied simvastatin promotes fracture healing in ovariectomized rat, Osteoporosis Int. 18:1641-1650 (2007)). Injection was subcutaneous targeted to the wound site. Rats were sacrificed on days 10 or 20 after surgery, and the axial and transverse length of the holes as well as cortical thickness (1.5 mm proximal and distal to the center of the hole) were determined with micro CT imaging (μCT-20, Scanco Medical AG) (FIG. 16).

rat femur = test: Rat femur healing of surgical wounds, micro CT; assay type: in vivo; details: for increase in cortical thickness vs control: anterior hole; for reduction in wound size vs control: anterior holes; for increase in cortical thickness: posterior hole
Experimental: Rat femur—healing of surgical wounds. A surgical hole with ˜2.0 mm in diameter was generated in the left and right femurs of twenty female SD rats (˜8 weeks, body weight ˜180 g). The holes were drilled through the femur from the anterior surface to the opposite cortex (posterior surface) in the middle of the femur. During the first 5 days, 100 μl of salubrinal solution at dosage of 0.025 mg/kg was injected subcutaneously to the left limb and a PBS solution (vehicle control) in the right limb. The injection site was closed to the anterior surgical hole. Rats were sacrificed on days 10 or 20 after surgery, and the axial and transverse hole sizes as well as cortical thickness (1.5 mm proximal and distal to the center of the hole) were determined with micro CT. […] Regarding the anterior holes, the size of the wounds 10 days after surgery was smaller in the salubrinal treated group by 10.8% (1.905±0.018 mm in control and 1.700±0.021 mm in salubrinal; p<0.001). The size in 20 day samples was further decreased by 18.0% (1.812±0.017 mm in control and 1.486±0.026 mm in salubrinal; p<0.001). […] Note that the reduction in the wound size on day 20 was more significant than those on day 10 in both the anterior and posterior holes (both p<0.001) (FIG. 20B).

rat brain = details: intra-cerebroventricular or intra-peritoneal administration; cited from earlier work
brainstem motoneurons = details: hypoxia and reoxygenation events; cited from earlier work
rat β-cells = details: 5-75 μM, dosage dependent; cited from earlier work
[2] = test system: eIF2α-p and ATF4 proteins; test: Western blot of eIF2α-p and ATF4 proteins in MC3T3 E1 osteoblast-like cells; assay type: cell-based, mouse
Experimental: (§2) At higher doses of 10 and 100 nM, the levels of eIF2α-p and ATF4 proteins were elevated (FIG. 5A). Thapsigarin is known to induce apoptosis when administered above a threshold concentration.
MS3T3 osteoblast-like cells were used to evaluate the level of eIF2α-p (phosphorylated form of eukaryotic initiation factor 2—subunit α) in response to salubrinal.

[3] = test system: CHOP, pro-caspase 3, cleaved caspase 3; test: Protein levels of CHOP, pro-caspase 3 and cleaved caspase 3 (induction of apoptosis); assay type: cell-based, mouse; details: 10 nM
Experimental: as §2

MC3T3 cells [4] = assay type: cell-based, mouse
[5] = test system: PERK, PKR, p-38 MAPK, ERK1/2; test: Phosphorylation of eIF2α kinases and MAP kinases; assay type: cell-based, mouse; details: 10 nM, 1 h exposure
Experimental: In response to T1h (1 h exposure at 10 nM), the level of phosphorylation of two eIF2α kinases (PERK and PKR), and two MAP kinases (p-38 MAPK and ERK1/2) was examined (FIG. 8).

MC3T3 cells [6] = test: Microarray analysis (GSEA, IPA) of thapsigargin-induced mild ER stress; assay type: cell-based, mouse; details: 1 h exposure at 10 nM
Experimental: Responses to Administration of Thapsigargin—Linkage to hypoxia through microarray analysis: In response to thapsigargin-induced mild ER stress (1 h exposure at 10 nM), microarray experiments were conducted. First, Gene Set Enrichment Analysis (GSEA; Broad Institute) was used to identify a group of genes that shared common biological functions (Hamamura, K., et al., “Microarray analysis of thapsigargin-induced stress to the endoplasmic reticulum of mouse osteoblasts,” J. Bone Miner. Metab. 26:231-240 (2008)). For each group of gene sets, GSEA calculates an enrichment score and evaluates statistical significance in the enrichment score. […] The highest normalized enrichment score was given to the gene set, HYPOXIA_UP. All genes present in the array were reordered based on a ranked list-metric value (a mean expression ratio between the thapsigargin-treated and untreated samples), and the best enrichment score of “−0.66” was assigned. Note that if the expression ratio is random among the genes in HYPOXIA_UP, the expected enrichment score is ±0.23. The enrichment score, ranked […] and P (enrichment score) supported the conclusions drawn from the software program output. […]

[7] = 10 days after surgery, 0.025 mg/kg

SMILES: O=C(/C=C/c1ccccc1)NC(NC(=S)Nc1cccc2cccnc12)C(Cl)(Cl)Cl (stereo not drawn) [salubrinal]
- mRNA levels of ATF4, ATF3, Osteocalcin and CHOP ([1]; MC3T3 cells, 100 nM-50 μM, 1-24 h): upregulated
- mRNA levels of ATF4, ATF3, Osteocalcin and CHOP (MLO-A5 osteocyte cells): did not show any significant alterations
- BMD of injected femur (femora of C57BL/6 mice; 20 μl 50 μM injection, 4 injections, mean±s.e.m.): 0.0456±0.0011 g/cm^2
- BMD compared to contralateral control (femora of C57BL/6 mice; p=0.02): increased
- BMC compared to contralateral control (femora of C57BL/6 mice; p=0.09): showed a trend to elevate
- tibia BMC (mouse tibia): 0.0154 ± 0.0004 g
- tibia BMD (mouse tibia): 0.0443±0.0011 g/cm^2
- increase in cortical thickness vs control (rat tibia; day 10): 11.6%
- increase in cortical thickness vs control (rat tibia; day 20): 20.3%
- reduction in wound size vs control (rat tibia; [7]): 12.3%
- reduction in wound size vs control (rat tibia; 20 days): 19.1%
- increase in cortical thickness vs control (rat femur; day 10): 11.0%
- increase in cortical thickness vs control (rat femur; day 20): 25.7%
- reduction in wound size vs control (rat femur; [7]): 10.8%
- reduction in wound size vs control (rat femur; 20 days): 18.0%
- increase in cortical thickness (rat femur; postoperative 10 days): 13.8%
- increase in cortical thickness (rat femur; postoperative 20 days): 21.3%
- excitotoxic neuronal death in vivo (rat brain): decreased excitotoxic neuronal death
- motoneuronal injury (brainstem motoneurons): suppressed motoneuronal injury
- apoptosis (rat β-cells): induced apoptosis

SMILES: C/C=C(/C)C(=O)O[C@H]1C(C)=C2[C@H]([C@@H]1OC(=O)CCCCCCC)[C@@](C)(OC(C)=O)C[C@H](OC(=O)CCC)[C@@]1(O)[C@H]2OC(=O)[C@@]1(C)O [thapsigargin]
- levels of eIF2α-p and ATF4 proteins ([2]; 10 and 100 nM): elevated
- eIF2α-p and ATF4 protein expression ([2]; dosages below 0.1 nM): no detectable upregulation
- level of active (cleaved) caspase 3 [3]: increased after 24 h
- level of CHOP protein ([3]; higher for 5, 10 and 24 h): started to increase after 3 h
- numbers of live and dead cells (MC3T3 cells [4]; 10 nM, 1 h incubation): does not alter
- cell number or mortality vs control cells (MC3T3 cells [4]; 1 h exposure at 10 nM): no significant difference
- increase in Runx2 mRNA ([1]; 10 nM): started at 3 h and peaked at 5 h
- mRNA level of CHOP ([1]; 10 nM): 10-35 fold
- mRNA level of type 1 collagen ([1]; 10 nM, 1 h exposure, 5 h and 10 h): elevated
- Rank 1 mRNA ([1]; 10 nM, 3 h for T2h and 10 h for T3h): significantly up
- level of Osteocalcin mRNA ([1]; 1-100 nM for 1-24 h): did not increase
- level of p-ERK1/2 [5]: not altered
- level of p-PERK [5]: elevated
- level of p-PKR [5]: not altered
- level of p-p38 MAPK [5]: elevated
- core enrichment genes in HYPOXIA_UP vs control (MC3T3 cells [6]): significantly upregulated
